“Also recorded” adds a separate entry of the source.
Key:
Upf1p-eRF3 interaction = target: T1, Upf1p-eRF3 interaction (Saccharomyces cerevisiae, UniProt P30771); assay: GST-eRF3 pull-down of purified FLAG-Upf1p, immunoblot; type: binding, yeast; conditions: 1 mM ATP, 1 mM GTP or 100 μg/ml poly(U) RNA
T1 construct: made in house; host or cells: GST-eRF3: E. coli BL21(DE3) pLysS with pGEX2T-SUP35
T1 sequence (P30771 1-971): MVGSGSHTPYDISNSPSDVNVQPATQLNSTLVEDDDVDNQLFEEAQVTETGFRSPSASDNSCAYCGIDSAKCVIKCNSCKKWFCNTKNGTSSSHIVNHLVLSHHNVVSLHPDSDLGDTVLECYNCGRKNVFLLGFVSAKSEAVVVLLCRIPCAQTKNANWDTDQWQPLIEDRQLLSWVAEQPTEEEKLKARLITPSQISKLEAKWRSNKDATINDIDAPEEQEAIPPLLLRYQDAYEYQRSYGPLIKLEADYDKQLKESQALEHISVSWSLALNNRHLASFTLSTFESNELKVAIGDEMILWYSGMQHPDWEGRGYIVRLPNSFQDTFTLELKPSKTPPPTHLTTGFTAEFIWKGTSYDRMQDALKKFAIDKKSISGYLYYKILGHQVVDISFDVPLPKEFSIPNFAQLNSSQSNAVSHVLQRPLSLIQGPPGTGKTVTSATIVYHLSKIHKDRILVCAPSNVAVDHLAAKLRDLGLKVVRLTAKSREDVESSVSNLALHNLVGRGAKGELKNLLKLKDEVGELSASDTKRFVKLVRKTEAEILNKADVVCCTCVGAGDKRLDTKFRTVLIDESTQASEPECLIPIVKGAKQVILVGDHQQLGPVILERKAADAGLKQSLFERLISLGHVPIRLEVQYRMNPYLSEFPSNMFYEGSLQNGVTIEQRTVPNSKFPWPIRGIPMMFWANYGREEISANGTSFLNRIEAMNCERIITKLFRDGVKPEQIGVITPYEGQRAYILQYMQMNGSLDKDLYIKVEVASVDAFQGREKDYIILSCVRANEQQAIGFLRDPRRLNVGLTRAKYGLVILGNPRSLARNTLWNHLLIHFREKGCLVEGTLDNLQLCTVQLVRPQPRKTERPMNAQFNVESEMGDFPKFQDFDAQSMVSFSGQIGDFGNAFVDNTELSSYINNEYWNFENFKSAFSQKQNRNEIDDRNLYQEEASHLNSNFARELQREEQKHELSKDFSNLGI
Procedure: FIG. 3. eRF3 and RNA compete for binding to Upf1p. (A) Poly(U) RNA prevents Upf1p from binding to eRF3. Reaction mixtures were prepared as described in FIG. 1B, except that binding was performed in TBSTB (TBST with 100 μg/ml BSA) and reaction mixtures contained 1 mM ATP, 1 mM GTP, or 100 μg/ml poly(U) RNA as indicated above each lane. The reaction mixtures were mixed for 1 hour at 4° C. Following mixing, the complexes were washed as in FIG. 1B with TBSTB containing 1 mM ATP, 1 mM GTP, or 100 μg/ml poly(U) RNA as indicated above each lane. […] Reaction mixtures were prepared as in FIG. 1B, in the presence or absence of […] poly(U) RNA as indicated above each lane. (C) eRF3 inhibits Upf1p RNA binding. A uniformly labeled 32 nt RNA was synthesized by SP6 transcription of SstI digested pGEM5Zf(+). The indicated amounts of GST-eRF3, were incubated with 200 ng Upf1p for 15 minutes at 4° C. 50 fmol of the RNA substrate was added and incubated for 5 minutes. Stop solution was added, and reactions electrophoresed in a 4.5% native PAGE gel (0.5×TBE, 30:0.5 acrylamide:bisacrylamide, with 5% glycerol). […]
Further, purified Flag-Upf1p with poly(U) RNA was incubated in the presence or absence of ATP. […] GST-eRF3 was added to the reaction mixtures and the Upf1-eRF3 interaction was monitored by immunoblotting analysis as before.

[1] = system: isogenic wild-type and upf3Δ strains; conditions: cells harboring the mof4-1 allele of UPF1; previous results; cited from earlier work
[2] = system: −1 ribosomal frameshifting; assay: β-galactosidase assay of −1 ribosomal frameshifting with plasmids pF8 / pTI25; type: cell-based, Saccharomyces cerevisiae
Procedure: Killer assays, frameshifting assays and extraction and analysis of total nucleic acids:The killer assay was carried out as previously described (Dinman, J. D., and Wickner, R. B. (1992)) by replica plating colonies onto 4.7 MB plates newly seeded with a lawn of 5×47 killer indicator cells (0.5 ml of a suspension at 1 unit of optical density at 550 nm per ml per plate). After 2 days at 20° C., killer activity was observed as a zone of growth inhibition around the killer colonies. To quantitate loss of killer activity, colonies that had been identified as killer^+ were re-streaked for single colonies and the percentage of killer^− colonies were determined. The efficiencies of −1 frameshifting were determined as previously described (Cui, Y., Dinman, J. D., and Peltz, S. W. (1996); Dinman, J. D., Ruiz-Echevarria, M. J., Czaplinski, K. and Peltz, S. W. (1997b)) using the 0-frame control (pTI25) and −1 reporter (pF8) plasmids.
Methods to measure efficiencies of programmed ribosomal frameshifting in vivo have been described previously (Cui, Y., Dinman, J. D., and Peltz, S. W. (1996); Dinman, J. D., Icho, T., and Wickner, R. B. (1991); Dinman, J. D., Ruiz-Echevarria, M. J., Czaplinski, K. and Peltz, S. W. (1997b)). […] Similarly, the +1 ribosomal frameshift efficiency is calculated based on the pJD104 to pTI25 β-gal ratios. […]

[3] = system: isogenic wild-type and upf3Δ strains; assay: Paromomycin sensitivity, zone of growth inhibition around a disc on a lawn of cells; type: cell-based, Saccharomyces cerevisiae
Procedure: FIG. 11. Paromomycin sensitivity was monitored in isogenic wild-type and upf3Δ strains by placing a disc containing 1 mg of paromomycin onto a lawn of cells and determining the zone of growth inhibition around the disc.
Paromomycin sensitivity was monitored in isogenic wild-type and upf3Δ strains by placing a disc containing 1 mg of paromomycin onto a lawn of cells and determining the zone of growth inhibition around the disc (FIG. 11).

SMILES | Effect on interaction between Upf1p and eRF3 (Upf1p-eRF3 interaction) | Paromomycin sensitivity [1] | β-galactosidase activity (−1 frameshift reporter) ([2]; upf3Δ cells carrying pF8, liquid media, different concentrations of the drug) | β-galactosidase activity ([2]; wild-type cells containing pF8, or any strain carrying pTI25 (zero frame control)) | Paromomycin sensitivity (zone of growth inhibition) ([3]; upf1Δ or upf2Δ strains) | Paromomycin sensitivity (zone of growth inhibition) ([3]; upf3Δ strain vs isogenic wild-type, disc containing 1 mg of paromomycin)
Nc1nc2c(ncn2[C@@H]2O[C@H](COP(=O)(O)OP(=O)(O)OP(=O)(O)O)[C@@H](O)[C@H]2O)c(=O)[nH]1 [GTP] | not affected |  |  |  |  | 
NC[C@@H]1O[C@H](O[C@H]2[C@@H](O)[C@H](O[C@@H]3[C@@H](O)[C@H](N)C[C@H](N)[C@H]3O[C@H]3O[C@H](CO)[C@@H](O)[C@H](O)[C@H]3N)O[C@@H]2CO)[C@H](N)[C@@H](O)[C@@H]1O [paromomycin] |  | increased sensitivity to paromomycin than the isogenic wild-type strain | increased continuously with increased concentrations of paromomycin | unaffected | Neither the upf1Δ or upf2Δ strains demonstrate hypersensitivity | more sensitive to paromomycin than the isogenic wild-type strain
Nc1ncnc2c1ncn2[C@@H]1O[C@H](COP(=O)(O)OP(=O)(O)OP(=O)(O)O)[C@@H](O)[C@H]1O [ATP] | did not affect the interaction; also recorded: did not prevent association of Upf1p with eRF3 |  |  |  |  | 
